Measurements published in ChEMBL document CHEMBL1127323, “Isosteric phosphonate analogs of ET-16-OMe. Synthesis and biological evaluation of the enantiomers of 2'-(trimethylammonio)ethyl 4-(hexadecyloxy)-3-methoxybutanephosphonate and 2'-(trimethylammonio)ethyl 4-(hexadecylthio)-3-methoxybutanephosphonate” (J Med Chem, 1994).

Columns and labels:
[1] = test system: L1210; assay: Inhibitory activity against L1210 growth using clonogenic assay; assay type: functional, cell-based; details: Mus musculus
[2] = organism: Mus musculus; assay: Inhibitory activity against murine leukemia; assay type: functional, organism-based
[3] = test system: P388; assay: Inhibitory activity against adriamycin-sensitive and resistant cells in P388 and P388-ADR cells; assay type: functional, cell-based; details: Mus musculus

| Compound | IC50 [1] | IC50 [2] | IC50 [3] |
| --- | --- | --- | --- |
| CCCCCCCCCCCCCCCCOC[C@H](CCP(=O)([O-])OCC[N+](C)(C)C)OC | 2.5 µM | 1 µM | 2.5 µM |
| CCCCCCCCCCCCCCCCSC[C@H](CCP(=O)([O-])OCC[N+](C)(C)C)OC | – | 1 µM | – |
